Measured values reported in patent US20100222423A1, “ASPALATHIN-LIKE DIHYDROCHALCONE, EXTRACTS FROM UNFERMENTED ROOIBOS AND PROCESS FOR PREPARATION” (KNEIPP-WERKE KNEIPP-MITTEL-ZENTRALE GMBH & CO. KG, priority 2007, published 2010).

Tested on: Fischer-344 rats
Assay: Tele-Stereo-EEG investigations in the rat (field potentials from frontal cortex, hippocampus, striatum, reticular formation)
Format: in vivo
Conditions: for effect on EEG frequencies in comparison with molecular constituents: approximately equimolar administration; for changes in EEG frequencies / power density compared with saline solution: oral single dose 3 or 6 mg/kg, up to 5 hours after application, n=6 rats
Description: The changes in the EEG (electroencephalography) frequencies was determined after administration of saline solution (control) and the compound of the formula I orally (3 or 6 mg/kg body weight).
The investigations were carried out analogously to the method described by W. Dimpfel (Dimpfel, W., Preclinical database of pharmaco-specific rat EEG fingerprints (Tele-Stereo-EEG). Eur. J. Med. Res. (2003) δ: 199-207) as follows: 4 Bipolar concentric electrodes together with a microplug on a common baseplate were implanted in six male adult Fischer-344 rats (converted day-night) aged 6 months. The plug served for recording a four-channel transmitter for telemetric transmission of the field potentials derived from frontal cortex, hippocampus, striatum and reticular formation. The signals were subjected to a fast Fourier transformation on a computer system (“EEG analysis” software, OS science operating system, “LabTeam” laboratory computer from MediSyst, Linden, Germany) in realtime and the power density spectra were determined in each case over 60 minutes. The division of the spectra into 6 different frequency ranges permitted the determination of pharmaco-specific changes in relation to the initial values, measured in each case before application, within these frequency bands.
Application protocol of the substances: the substances were applied orally 45 minutes after the beginning of the measurements (initial value). Five minutes later, the measurements were started again, analyzed continuously at least over the next 5 hours and collected in 60 minute periods. The test substance was applied in a dose of 3 and 6 mg/kg (compound of the formula I). The experimental series was begun with the administration of saline solution (control), which led to no abnormal change (FIG. 6).
The statistical comparison of the experiments with the results which were measured after administration of saline solution was effected with the aid of multivariant analysis according to Ahrens and Läuter (cf. H. Ahrens, J. Läuter, “Mehrdimensionale Varianzanalyse” [Multidimensional variance analysis]” (1974), Akademie Verlag, Berlin) on the basis of the changes within the individual frequency bands in all regions of the brain as variables.

O=C(CCc1ccc(O)c(O)c1)c1c(O)cc(O)c([C@@H]2O[C@H](CO)[C@@H](O)[C@H](O)[C@H]2O)c1O [aspalathin]
effect on EEG frequencies in comparison with molecular constituents (oral, rat): not by parts of the molecule

O=C(CCc1ccc(O)c(O)c1)c1c(O)c(C2OC(CO)C(O)C(O)C2O)c(O)c(C2c3c(O)cc(O)cc3OC(c3ccc(O)c(O)c3)C2O)c1O (centres unmarked) [compound according to formula I]
effect on EEG frequencies in comparison with molecular constituents (oral, rat): the effect can be achieved
changes in EEG frequencies / power density compared with saline solution: stable changes in the power density in all areas of the brain
changes in EEG frequencies / power density compared with saline solution (listed as compound according to the formula I): dose-dependent changes in the EEG frequencies
pattern of changes in electrical brain activity compared with reference medicaments (oral single dose, rat): corresponded to those after administration of metanicotine, galantamine, tacrine, L-DOPA or nefopam
discriminance analysis of EEG frequency changes (four regions of the brain, 6 frequency bands, 24 variables) (rat, compared with medicaments of the database): close to that of galantamine, tacrine and nefopam
crossing of the blood-brain barrier (inferred from central nervous activity) (rat, oral, substance or its metabolites): evidently cross the blood-brain barrier

catechin [reference compound]
effect on EEG frequencies in comparison with molecular constituents (oral, rat): not by parts of the molecule
